The source of these data is patent publication US20250368627A1, “PYRAZOLESULFONAMIDES AS ANTITUMOR AGENTS” (Peloton Therapeutics, Inc., a fully owned subsidiary of …, priority 2019, published 2025).

Test [1] addresses T1, DDB1DB/DCAF15 and RBM39 R1R2 complex (Homo sapiens, UniProt Q14498+Q66K64).
T1 construct: Amino acids 150 to 331 of RBM39 were cloned into pGEX4T3; GST (from vector pGEX4T3); TEV cleavage site (N); made in house; host or cells: DDB1DB/His-DCAF15: baculovirus/Sf9 co-expression; RBM39 R1R2: E. coli (pGEX4T3)
The experiment in a line: DCAF15 RBM39 Complex Formation Assay (FRET). Type of test: binding. Conditions: FRET ratio Em 665/Em 615, incubated overnight at 4° C. An excerpt:
LANCE Eu-W1024 Anti-6×His and SureLight Allophycocyanin-anti-FLAG antibodies were purchased from Perkin Elmer. Human DDB1DB and His-tagged DCAF15 were co-expressed in baculovirus/sf9 system. While full length DDB1 contains three 7-bladed propellers termed A, B, and C, DDB1DB has only propeller A (amino acids 1 to 395) and C (amino acids 709-1140). The His-tagged DCAF15 contains six histidine residues directly preceding the DCAF15 sequence without any linker. An RBM39 fragment containing RRM1 and RRM2 was expressed in E. coli. Amino acids 150 to 331 of RBM39 were cloned into pGEX4T3 with an N-terminal TEV cleavage site and a C-terminal FLAG tag.
A compound of the present disclosure in DMSO (2 μL) was transferred to a 384-well assay plate. Compound was added in 14 points, 3-fold serial dilution (1 μM to 0.6 pico molar) in DMSO. […] FRET assay buffer (25 mM HEPES, pH 7.5, 100 mM NaCl, […], 0.5 mM TCEP, 0.005% Tween-20, 0.2 nM Eu—W1024 Anti-6×His, 50 nM SureLight Allophycocyanin-anti-FLAG, 20 nM DDB1DB/DCAF15, 50 nM RBM39 R1R2) was added and the resulting solution was incubated overnight at 4° C. The plate was placed in a plate reader (Spark 10) with excitation at 1=340 nm and emissions monitored at 1=665 nm and 1=615 nm, and the FRET ratio (Em 665/Em 615) was determined. Low signal controls containing no compound and high signal controls containing 10 mM indisulam were measured for each plate.
EC50 values were calculated using Dotmatics template equation for 4-parameter fit. Results are expressed as % formation using the following equation: […]

Test [2] concerns HCT116 human colorectal carcinoma cells. The experiment in a line: CellTiter-Glo Luminescent Cell Viability Assay. Type of test: cell-based. As to conditions: HCT-116, 72 h, 3 days. As for the experimental part: HCT116 human colorectal carcinoma cells were used in these experiments. HCT116 cells were obtained from ATCC. CellTiter-Glo® Luminescent Cell Viability Assay Reagent was obtained from Promega.
About 3,000 cells were seeded into 96-well plate with […] of media (DMEM supplemented with 10% FBS, 100 units penicillin, and […] streptomycin per mL) the day before the experiment. For compound treatment, the master plate was prepared as follows: 100× compound stocks were prepared in a 96-well plate by 1 to 3 serial dilutions of 0.5 mM DMSO stocks. Each master plate contained serial dilution of 8 compounds, including the control compound E7820. […] of 100× compound stock was added to each well of the assay plate to give final concentrations of […]. Each concentration was tested in triplicate. After 3 days, cell viability was determined using CellTiter-Glo Luminescent Cell Viability Assay Reagent following the manufacturer's recommended protocol. Briefly, […] of CellTiter-Glo reagent was added to each well of the assay plate and the contents were mixed for 3 minutes at 600 rpm on a shaker (Thermomixer R). The plate was immediately placed in a plate reader (Synergy 2) and the luminescence signal (0.5 second per well integration time) was determined. IC50 values were calculated using Dotmatics software.

What is called IC50 is the concentration that gives 50% inhibition. What is called EC50 is the concentration needed to bring the measured effect to its halfway point.

Some results are limits rather than exact numbers.

T1 sequence (Q66K64 whole entry, the tested form may be a part): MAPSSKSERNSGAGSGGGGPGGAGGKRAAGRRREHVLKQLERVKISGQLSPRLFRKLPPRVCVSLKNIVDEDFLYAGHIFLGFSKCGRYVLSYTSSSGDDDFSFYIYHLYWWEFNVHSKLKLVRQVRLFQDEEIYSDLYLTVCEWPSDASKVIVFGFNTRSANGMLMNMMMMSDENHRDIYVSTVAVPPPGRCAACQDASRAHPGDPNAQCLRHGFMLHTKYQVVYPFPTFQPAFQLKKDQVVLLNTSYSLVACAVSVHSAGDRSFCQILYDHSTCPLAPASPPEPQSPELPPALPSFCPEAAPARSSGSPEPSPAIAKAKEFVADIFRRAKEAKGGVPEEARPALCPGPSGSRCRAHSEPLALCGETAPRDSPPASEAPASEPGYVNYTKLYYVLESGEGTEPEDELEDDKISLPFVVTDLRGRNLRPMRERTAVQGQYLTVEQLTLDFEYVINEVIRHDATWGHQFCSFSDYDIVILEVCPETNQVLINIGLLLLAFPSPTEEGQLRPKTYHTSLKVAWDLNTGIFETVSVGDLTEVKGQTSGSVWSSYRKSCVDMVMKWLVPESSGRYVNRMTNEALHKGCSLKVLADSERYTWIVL
T1 sequence (Q14498 150-331): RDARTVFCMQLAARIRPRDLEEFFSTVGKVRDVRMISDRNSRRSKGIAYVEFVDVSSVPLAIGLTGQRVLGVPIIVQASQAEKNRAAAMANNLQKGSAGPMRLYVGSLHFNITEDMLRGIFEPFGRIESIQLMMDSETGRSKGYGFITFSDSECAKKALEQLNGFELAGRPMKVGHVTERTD
T1 sequence (Q16531 with tags, fused parts or gaps DEL396-708 partner): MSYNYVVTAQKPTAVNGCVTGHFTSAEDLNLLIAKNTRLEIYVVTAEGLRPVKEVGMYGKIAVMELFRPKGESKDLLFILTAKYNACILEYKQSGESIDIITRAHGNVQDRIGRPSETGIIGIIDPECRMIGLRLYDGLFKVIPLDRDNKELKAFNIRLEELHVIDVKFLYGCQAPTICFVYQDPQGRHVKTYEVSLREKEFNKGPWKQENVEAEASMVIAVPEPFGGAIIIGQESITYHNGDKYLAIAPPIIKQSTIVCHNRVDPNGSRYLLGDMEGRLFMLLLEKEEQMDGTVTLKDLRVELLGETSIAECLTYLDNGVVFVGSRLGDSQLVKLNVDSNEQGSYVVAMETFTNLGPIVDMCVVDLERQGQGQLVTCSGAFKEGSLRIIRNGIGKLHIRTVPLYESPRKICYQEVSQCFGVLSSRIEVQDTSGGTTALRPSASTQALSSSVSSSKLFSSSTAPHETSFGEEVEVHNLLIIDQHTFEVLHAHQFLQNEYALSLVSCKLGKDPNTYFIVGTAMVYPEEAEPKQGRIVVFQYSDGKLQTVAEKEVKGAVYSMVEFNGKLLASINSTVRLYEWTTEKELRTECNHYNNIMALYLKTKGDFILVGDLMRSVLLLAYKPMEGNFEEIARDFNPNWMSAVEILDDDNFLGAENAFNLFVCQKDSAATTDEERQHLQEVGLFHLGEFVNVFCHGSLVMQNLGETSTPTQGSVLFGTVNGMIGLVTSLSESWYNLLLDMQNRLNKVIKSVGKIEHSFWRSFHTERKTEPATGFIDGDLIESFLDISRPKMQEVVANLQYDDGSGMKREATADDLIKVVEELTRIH

On to `COC(Cn1cc(S(=O)(=O)Nc2cccc3c(Cl)c[nH]c23)cn1)OC` [Compound 32, N-(3-chloro-1H-indol-7-yl)-1-(2,2-dimethoxyethyl)pyrazole-4-sulfonamide], for which the IC50 in test [1] is less than 250 nM. In test [2], the EC50 lay within 250 to 1000 nM.
For `CC(C)(C)OC(=O)NCCn1cc(S(=O)(=O)Nc2cccc3c(Cl)c[nH]c23)cn1` [Compound 33, tert-butyl N-[2-[4-[(3-chloro-1H-indol-7-yl)sulfamoyl]pyrazol-1-yl]ethyl]carbamate], in that order: 250 to 1000 nM and more than 1000 nM.
For `NCCn1cc(S(=O)(=O)Nc2cccc3c(Cl)c[nH]c23)cn1` [Compound 34, 1-(2-aminoethyl)-N-(3-chloro-1H-indol-7-yl)pyrazole-4-sulfonamide], in that order: less than 250 nM and more than 1000 nM.
With `O=S(=O)(Nc1cccc2c(Cl)c[nH]c12)c1cnn(CCF)c1` [Compound 35, N-(3-chloro-1H-indol-7-yl)-1-(2-fluoroethyl)pyrazole-4-sulfonamide], the IC50 in test [1] was less than 250 nM. The EC50 in test [2] was 250 to 1000 nM.
`Cc1ccc(NS(=O)(=O)c2cnn(CCF)c2)c2[nH]cc(C#N)c12` [Compound 36, N-(3-cyano-4-methyl-1H-indol-7-yl)-1-(2-fluoroethyl)pyrazole-4-sulfonamide]: the IC50 in test [1] was less than 250 nM. In addition, in test [2], the EC50 is less than 250 nM.
`O=S(=O)(Nc1cccc2c(Cl)c[nH]c12)c1cnn(-c2ccccc2)c1` [Compound 37, N-(3-chloro-1H-indol-7-yl)-1-phenyl-pyrazole-4-sulfonamide]: the IC50 in test [1] is less than 250 nM. The EC50 in test [2] is more than 1000 nM.
For `CC(C)n1cc(S(=O)(=O)Nc2cccc3c(Cl)c[nH]c23)cn1` [Compound 39, N-(3-chloro-1H-indol-7-yl)-1-isopropyl-pyrazole-4-sulfonamide], in that order: less than 250 nM and 250 to 1000 nM.
In the case of `O=S(=O)(Nc1cccc2c(Cl)c[nH]c12)c1cnn(C2COC2)c1` [Compound 40, N-(3-chloro-1H-indol-7-yl)-1-(oxetan-3-yl)pyrazole-4-sulfonamide], the IC50 in test [1] is less than 250 nM. Further, the EC50 in test [2] fell in the range of 250 to 1000 nM.
As to `O=S(=O)(Nc1cccc2c(Cl)c[nH]c12)c1cnn(C2CCNCC2)c1` [Compound 41, N-(3-chloro-1H-indol-7-yl)-1-(4-piperidyl)pyrazole-4-sulfonamide], in test [1], the IC50 lay in the range of 250 to 1000 nM. The EC50 in test [2] is more than 1000 nM.
In the case of `O=S(=O)(Nc1cccc2c(Cl)c[nH]c12)c1cnn(CC2CNC2)c1` [Compound 43, 1-(azetidin-3-ylmethyl)-N-(3-chloro-1H-indol-7-yl)pyrazole-4-sulfonamide], the IC50 in test [1] is less than 250 nM. In addition, the EC50 in test [2] is more than 1000 nM.
For `CC1(Cn2cc(S(=O)(=O)Nc3cccc4c(Cl)c[nH]c34)cn2)CSC1` [Compound 44, N-(3-chloro-1H-indol-7-yl)-1-[(3-methylthietan-3-yl)methyl]pyrazole-4-sulfonamide], the IC50 in test [1] is less than 250 nM. In addition, the EC50 in test [2] was more than 1000 nM.
In the case of `CC1(Cn2cc(S(=O)(=O)Nc3cccc4c(Cl)c[nH]c34)cn2)CS(=O)(=O)C1` [Compound 45, N-(3-chloro-1H-indol-7-yl)-1-[(3-methyl-1,1-dioxo-thietan-3-yl)methyl]pyrazole-4-sulfonamide], the IC50 in test [1] was less than 250 nM. For the same molecule, the 50% effective concentration (EC50) in test [2] was in the range of 250 to 1000 nM.
For the molecule `Cn1cc(S(=O)(=O)Nc2cccc3c(C#N)c[nH]c23)cn1` [Compound 46, N-(3-cyano-1H-indol-7-yl)-1-methyl-pyrazole-4-sulfonamide], in test [1], the IC50 is less than 250 nM. Moreover, the half-maximal effective concentration (EC50) in test [2] lay in the range of 250 to 1000 nM.
For `O=S(=O)(Nc1cccc2c(Cl)c[nH]c12)c1cnn(C2CCC2)c1` [Compound 47, N-(3-chloro-1H-indol-7-yl)-1-cyclobutyl-pyrazole-4-sulfonamide], the IC50 in test [1] is less than 250 nM. The EC50 in test [2] fell in the range of 250 to 1000 nM.
For the molecule `COCCn1cc(S(=O)(=O)Nc2cccc3c(Cl)c[nH]c23)cn1` [Compound 49, N-(3-chloro-1H-indol-7-yl)-1-(2-methoxyethyl)pyrazole-4-sulfonamide], the IC50 in test [1] was less than 250 nM. The EC50 in test [2] fell in the range of 250 to 1000 nM.
For `O=S(=O)(Nc1cccc2c(Cl)c[nH]c12)c1cnn(CC2CC2)c1` [Compound 51, N-(3-chloro-1H-indol-7-yl)-1-(cyclopropylmethyl)pyrazole-4-sulfonamide], in that order: less than 250 nM and 250 to 1000 nM.
Regarding `N#CC1(Cn2cc(S(=O)(=O)Nc3cccc4c(Cl)c[nH]c34)cn2)CC1` [Compound 52, N-(3-chloro-1H-indol-7-yl)-1-[(1-cyanocyclopropyl)methyl]pyrazole-4-sulfonamide], in test [1], the IC50 is less than 250 nM. Further, the EC50 in test [2] was 250 to 1000 nM.
Take `O=S(=O)(Nc1cccc2c(Cl)c[nH]c12)c1cnn(CC2CC(F)(F)C2)c1` [Compound 53, N-(3-chloro-1H-indol-7-yl)-1-[(3,3-difluorocyclobutyl)methyl]pyrazole-4-sulfonamide]: the IC50 in test [1] was less than 250 nM. In addition, in test [2], the EC50 was more than 1000 nM.
On to `Cn1cc(S(=O)(=O)Nc2ccc(F)c3c(Cl)c[nH]c23)cn1` [Compound 54, N-(3-chloro-4-fluoro-1H-indol-7-yl)-1-methyl-pyrazole-4-sulfonamide], for which the IC50 in test [1] was less than 250 nM. Moreover, the EC50 in test [2] was 250 to 1000 nM.
`O=S(=O)(Nc1cccc2c(Cl)c[nH]c12)c1cnn(CF)c1` [Compound 56, N-(3-chloro-1H-indol-7-yl)-1-(fluoromethyl)pyrazole-4-sulfonamide]: the IC50 in test [1] is less than 250 nM. The EC50 in test [2] lay in the range of 250 to 1000 nM.
`O=S(=O)(Nc1cccc2c(Cl)c[nH]c12)c1cnn(CCCF)c1` [Compound 57, N-(3-chloro-1H-indol-7-yl)-1-(3-fluoropropyl)pyrazole-4-sulfonamide]: the IC50 in test [1] is less than 250 nM. Besides, the EC50 in test [2] was more than 1000 nM.
In the case of `N#CCCn1cc(S(=O)(=O)Nc2cccc3c(Cl)c[nH]c23)cn1` [Compound 59, N-(3-chloro-1H-indol-7-yl)-1-(2-cyanoethyl)pyrazole-4-sulfonamide], the IC50 in test [1] was less than 250 nM. Besides, the concentration giving a half-maximal response (EC50) in test [2] is less than 250 nM.
For the molecule `Cc1ccc(NS(=O)(=O)c2cnn(CC(F)(F)F)c2)c2[nH]cc(C#N)c12` [Compound 60, N-(3-cyano-4-methyl-1H-indol-7-yl)-1-(2,2,2-trifluoroethyl)pyrazole-4-sulfonamide], the IC50 in test [1] was less than 250 nM. Moreover, in test [2], the EC50 was less than 250 nM.
In the case of `Cc1ccc(NS(=O)(=O)c2cnn(C3CCC3)c2)c2[nH]cc(C#N)c12` [Compound 61, N-(3-cyano-4-methyl-1H-indol-7-yl)-1-cyclobutyl-pyrazole-4-sulfonamide], the IC50 in test [1] was less than 250 nM. For the same molecule, the EC50 in test [2] lay within 250 to 1000 nM.
`Cc1ccc(NS(=O)(=O)c2cn[nH]c2)c2[nH]cc(C#N)c12` [Compound 62, N-(3-cyano-4-methyl-1H-indol-7-yl)-1H-pyrazole-4-sulfonamide]: the IC50 in test [1] was less than 250 nM. The EC50 in test [2] is 250 to 1000 nM.
As to `Cc1ccc(NS(=O)(=O)c2cnn(C(C)C)c2)c2[nH]cc(C#N)c12` [Compound 63, N-(3-cyano-4-methyl-1H-indol-7-yl)-1-isopropyl-pyrazole-4-sulfonamide], the IC50 in test [1] is less than 250 nM. In addition, the 50% effective concentration (EC50) in test [2] fell in the range of 250 to 1000 nM.
For `Cc1ccc(NS(=O)(=O)c2cnn(C3COC3)c2)c2[nH]cc(C#N)c12` [Compound 64, N-(3-cyano-4-methyl-1H-indol-7-yl)-1-(oxetan-3-yl)pyrazole-4-sulfonamide], in that order: less than 250 nM and less than 250 nM.
As to `Cn1cc(S(=O)(=O)Nc2ccc(F)c3c(C#N)c[nH]c23)cn1` [Compound 65, N-(3-cyano-4-fluoro-1H-indol-7-yl)-1-methyl-pyrazole-4-sulfonamide], the IC50 in test [1] was less than 250 nM. In addition, the EC50 in test [2] lay within 250 to 1000 nM.
